Reference: ChEMBL document CHEMBL4609983, “Pan-specific and partially selective dye-labeled peptidic inhibitors of the polycomb paralog proteins” (Bioorg Med Chem, 2020)
Non-standard residues stand in square brackets, D forms with d. Residues, ends and D or L forms follow the SMILES beside them. *: point of attachment. X1 = O=C(O)c1cc(NC(=S)*)ccc1-c1c2ccc(=O)cc-2oc2cc(O)ccc12; Lys(Me3) = C[N+](C)(C)CCCC[C@H](N)C(=O)O; Benzoyl(4-Br) = O=C(c1ccc(Br)cc1)*; Gly(cPent) = N[C@H](C(=O)O)C1CCCC1; Abu = CC[C@H](N)C(=O)O; βAla = NCCC(=O)O

Assays:
[1] = species on record: Homo sapiens; assay: Selectivity ratio of IC50 for CBX7 (unknown origin) to IC50 for CBX8 (unknown origin)
[2] = biological target: T1, Chromobox protein homolog 6 (Homo sapiens, UniProt O95503); assay: Inhibition of CBX6 (unknown origin) assessed as […] by competitive FP assay
T1 sequence (O95503 whole entry): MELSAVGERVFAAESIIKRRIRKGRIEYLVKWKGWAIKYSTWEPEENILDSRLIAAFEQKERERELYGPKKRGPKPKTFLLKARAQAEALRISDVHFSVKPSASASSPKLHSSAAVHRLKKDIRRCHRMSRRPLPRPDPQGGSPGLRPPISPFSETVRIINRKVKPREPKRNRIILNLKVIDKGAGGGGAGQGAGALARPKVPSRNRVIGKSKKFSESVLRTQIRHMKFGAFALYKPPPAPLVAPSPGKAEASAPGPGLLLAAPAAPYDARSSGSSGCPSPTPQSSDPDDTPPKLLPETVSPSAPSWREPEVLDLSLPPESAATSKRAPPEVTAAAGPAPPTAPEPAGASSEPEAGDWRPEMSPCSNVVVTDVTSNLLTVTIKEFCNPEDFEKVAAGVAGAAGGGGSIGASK

[3] = biological target: T2, Chromobox protein homolog 8 (Homo sapiens, UniProt Q9HC52); assay: Inhibition of CBX8 (unknown origin) assessed as […] by competitive FP assay
T2 sequence (Q9HC52 whole entry): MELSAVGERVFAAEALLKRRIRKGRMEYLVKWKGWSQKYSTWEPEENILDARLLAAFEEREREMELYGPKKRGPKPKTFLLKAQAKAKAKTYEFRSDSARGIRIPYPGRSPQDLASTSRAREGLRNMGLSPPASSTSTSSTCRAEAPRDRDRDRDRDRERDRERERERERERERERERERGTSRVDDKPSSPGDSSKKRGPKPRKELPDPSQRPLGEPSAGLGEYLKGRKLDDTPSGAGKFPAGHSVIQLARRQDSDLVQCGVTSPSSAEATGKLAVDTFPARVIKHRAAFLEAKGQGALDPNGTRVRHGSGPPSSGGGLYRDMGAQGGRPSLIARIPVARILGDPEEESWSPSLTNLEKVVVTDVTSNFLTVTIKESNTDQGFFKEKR

[4] = biological target: T3, Chromobox protein homolog 7 (Homo sapiens, UniProt O95931); assay: Inhibition of CBX7 (unknown origin) assessed as […] by competitive FP assay
T3 sequence (O95931 whole entry): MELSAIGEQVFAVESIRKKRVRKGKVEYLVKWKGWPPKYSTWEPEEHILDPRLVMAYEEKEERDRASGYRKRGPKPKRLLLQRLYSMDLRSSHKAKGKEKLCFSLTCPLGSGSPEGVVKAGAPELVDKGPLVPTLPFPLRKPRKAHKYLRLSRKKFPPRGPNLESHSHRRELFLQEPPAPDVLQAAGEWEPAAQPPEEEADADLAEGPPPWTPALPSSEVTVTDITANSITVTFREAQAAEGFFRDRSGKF

[5] = species on record: Homo sapiens; assay: Selectivity ratio of IC50 for CBX4 (unknown origin) to IC50 for CBX7 (unknown origin)
[6] = biological target: T1, Chromobox protein homolog 6; assay: Binding affinity to CBX6 (unknown origin) assessed as dissociation constant by fluorescence polarization analysis
[7] = biological target: T3, Chromobox protein homolog 7; assay: Binding affinity to CBX7 (unknown origin) assessed as dissociation constant by fluorescence polarization analysis
[8] = Drug uptake in human TOV21G cells assessed as endosomal entrapment by measuring characteristic punctate dots in the cytoplasm at 10 uM by cell imaging analysis; format: ADME, cell-based
[9] = biological target: Chromobox protein homolog 1 (Homo sapiens, UniProt P83916); assay: Binding affinity to CBX1 (unknown origin) assessed as dissociation constant by fluorescence polarization analysis
Chromobox protein homolog 1, sequence (P83916 whole entry): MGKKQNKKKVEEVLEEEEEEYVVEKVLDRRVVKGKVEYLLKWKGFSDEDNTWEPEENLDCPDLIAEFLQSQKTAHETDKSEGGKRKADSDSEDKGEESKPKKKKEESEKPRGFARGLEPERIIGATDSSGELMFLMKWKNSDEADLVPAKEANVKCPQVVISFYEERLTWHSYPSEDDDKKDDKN

[10] = biological target: T2, Chromobox protein homolog 8; assay: Binding affinity to CBX8 (unknown origin) assessed as dissociation constant by fluorescence polarization analysis
[11] = Drug uptake in nucleus of human PC3 cells by live cell imaging analysis; format: ADME, cell-based; conditions: pc-3
[12] = biological target: T4, E3 SUMO-protein ligase CBX4 (Homo sapiens, UniProt O00257); assay: Binding affinity to CBX4 (unknown origin) assessed as dissociation constant by fluorescence polarization analysis
T4 sequence (O00257 whole entry): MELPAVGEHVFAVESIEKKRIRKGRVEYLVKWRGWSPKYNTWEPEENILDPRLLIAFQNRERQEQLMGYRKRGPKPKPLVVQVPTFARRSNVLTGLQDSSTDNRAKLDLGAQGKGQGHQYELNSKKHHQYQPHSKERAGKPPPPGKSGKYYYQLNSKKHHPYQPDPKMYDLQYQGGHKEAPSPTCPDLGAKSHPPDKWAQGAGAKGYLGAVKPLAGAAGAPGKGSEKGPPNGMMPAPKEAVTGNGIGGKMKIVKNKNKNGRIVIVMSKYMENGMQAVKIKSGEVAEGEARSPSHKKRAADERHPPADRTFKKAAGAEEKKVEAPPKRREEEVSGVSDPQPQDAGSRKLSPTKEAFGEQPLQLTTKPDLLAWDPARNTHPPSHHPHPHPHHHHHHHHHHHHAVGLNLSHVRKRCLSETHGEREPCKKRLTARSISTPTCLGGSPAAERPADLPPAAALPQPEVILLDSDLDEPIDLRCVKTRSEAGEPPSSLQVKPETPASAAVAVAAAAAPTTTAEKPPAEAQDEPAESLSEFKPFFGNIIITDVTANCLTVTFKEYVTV

[13] = Drug uptake in cytoplasm of human PC3 cells by live cell imaging analysis; format: ADME, cell-based; conditions: pc-3
[14] = Drug uptake in human TOV21G cells by flow cytometric analysis; format: ADME, cell-based
[15] = Drug uptake in human PC3 cells assessed as endosomal entrapment by measuring characteristic punctate dots in the cytoplasm at 10 uM by cell imaging analysis; format: ADME, cell-based; conditions: pc-3, 10 µM
[16] = Drug uptake in cytoplasm of human TOV21G cells by live cell imaging analysis; format: ADME, cell-based
[17] = test system: TOV21G; assay: Effect on cell cycle in human TOV21G cells by measuring cells distribution at G0 phase; format: cell-based
[18] = test system: TOV21G; assay: Effect on cell cycle in human TOV21G cells by measuring cells distribution at G1 phase; format: cell-based
[19] = biological target: T5, Chromobox protein homolog 2 (Homo sapiens, UniProt Q14781); assay: Binding affinity to CBX2 (unknown origin) assessed as dissociation constant by fluorescence polarization analysis
T5 sequence (Q14781 whole entry): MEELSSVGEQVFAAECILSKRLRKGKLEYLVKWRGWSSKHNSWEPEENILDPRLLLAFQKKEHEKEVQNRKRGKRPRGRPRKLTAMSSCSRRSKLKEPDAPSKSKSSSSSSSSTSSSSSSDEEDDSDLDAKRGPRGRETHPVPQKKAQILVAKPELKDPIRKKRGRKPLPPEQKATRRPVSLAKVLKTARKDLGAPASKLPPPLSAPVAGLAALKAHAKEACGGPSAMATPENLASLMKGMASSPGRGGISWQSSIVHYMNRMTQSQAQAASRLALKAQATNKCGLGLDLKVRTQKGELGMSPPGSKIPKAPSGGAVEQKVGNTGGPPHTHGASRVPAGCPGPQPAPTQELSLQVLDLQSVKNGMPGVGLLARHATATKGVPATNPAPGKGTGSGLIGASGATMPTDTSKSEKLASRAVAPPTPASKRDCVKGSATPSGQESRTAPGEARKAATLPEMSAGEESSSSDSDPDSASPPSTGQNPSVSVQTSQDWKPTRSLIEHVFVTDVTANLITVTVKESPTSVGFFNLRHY

[20] = Drug uptake in nucleus of human TOV21G cells by live cell imaging analysis; format: ADME, cell-based
[21] = test system: TOV21G; assay: Effect on cell cycle in human TOV21G cells by measuring cells distribution at G2/M phase; format: cell-based
[22] = test system: TOV21G; assay: Effect on cell cycle in human TOV21G cells by measuring cells distribution at S phase; format: cell-based

Question: With `CC[C@H](NC(=O)[C@H](Cc1ccccc1)NC(=O)c1ccc(Br)cc1)C(=O)N[C@H](C(=O)N[C@@H](CCCC[N+](C)(C)C)C(=O)N[C@@H](CO)C(=O)N[C@@H](CCC(=O)O)C(N)=O)C1CCCC1` ({Benzoyl(4-Br)}-F[Abu][Gly(cPent)][Lys(Me3)]SE-NH2) as the compound, how does the Ratio IC50 [1] read?
Answer: 2

Question: What about the IC50 [2] of the same compound?
Answer: 2800 nM

Question: And the IC50 [3]?
Answer: 3800 nM

Question: And the IC50 [4]?
Answer: 8300 nM

Question: What about the Ratio IC50 [5] of the same compound?
Answer: 10

Question: Which results are given for `CC(C)C[C@H](NC(=O)[C@H](C)NC(=O)[C@H](Cc1ccccc1)NC(=O)[C@H](Cc1ccccc1)NC(=O)CCNC(=S)Nc1ccc(-c2c3ccc(=O)cc-3oc3cc(O)ccc23)c(C(=O)O)c1)C(=O)N[C@@H](CCCC[N+](C)(C)C)C(=O)N[C@@H](CO)C(N)=O` ({X1-βAla}-FFAL[Lys(Me3)]S-NH2)?
Answer: Kd [6]: 1100 nM; Kd [7]: 1600 nM; Drug uptake [8]: Active; Kd [9]: 47000 nM; Kd [10]: 1700 nM; Drug uptake [11]: Not Active; Kd [12]: 1700 nM; Drug uptake [13]: Not Active; Drug uptake [14]: Active; Drug uptake [15]: Active; Drug uptake [16]: Not Active; Activity [17]: Non-Toxic; Activity [18]: Non-Toxic; Kd [19]: 3100 nM; Drug uptake [20]: Not Active; Activity [21]: Non-Toxic; Activity [22]: Non-Toxic
